Test results reported in ChEMBL document CHEMBL1201862, “PubChem BioAssay data set” (2004).
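Following 48 hours of exposure in 96-well plates, responses at five concentrations were used to interpolate endpoints linearly. GI50 marks 50% less growth.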 The source made the active and inactive calls. Rule as the data show it: active = GI50 up to about 1.1 µM and inactive = higher.

Tests used:
Test in all cases: NCI-60 cell line screen, 48 h
[1] = test system: DMS-114
[2] = test system: M19-MEL
[3] = test system: LXFL 529
[4] = test system: KM-20L2
[5] = test system: SNB-78
[6] = test system: DMS-273
[7] = test system: XF498
[8] = test system: HOP-18
[9] = test system: RXF 631

Measured: GI50

O=C(CC1(O)C(=O)Nc2ccccc21)c1ccncc1 (configuration not stated)
inactive: [1] > 100 µM | [2] > 100 µM | [3] > 100 µM | [4] > 100 µM | [5] > 100 µM | [6] > 100 µM

COC(=O)CC(=O)OC
inactive: [7] > 100 µM | [1] > 100 µM | [2] > 100 µM | [3] > 100 µM | [8] > 100 µM | [4] > 100 µM | [5] > 100 µM | [6] > 100 µM

CC(C)NC(=O)OCc1c(CO)c2c(n1C)-c1ccccc1CC2
inactive: [7] 14.2 µM | [1] 18.7 µM | [2] 23.9 µM | [8] 15 µM | [4] 30.8 µM | [5] 33.8 µM | [6] 26.8 µM

Cc1ccc(/C=C/C(=O)c2cccc3ccccc23)cc1
inactive: [7] 15.3 µM | [2] 21.2 µM | [3] 12.7 µM | [4] 15.8 µM | [5] 14.8 µM | [6] 19 µM

CCCCCC(=O)C(C)C1=Nc2nnc(CCCCCCCc3nnc4n3C(=O)C(C(C)C(=O)CCCCC)=N4)n2C1=O (configuration not stated)
inactive: [9] > 100 µM | [7] > 100 µM | [1] > 100 µM | [2] > 100 µM | [3] > 100 µM | [8] > 100 µM | [4] > 100 µM

CCOC(=O)c1[nH]c2c(OC)n[n+]([O-])cc2c1[N+](=O)[O-]
inactive: [7] 16.1 µM | [1] 22.2 µM | [2] 24.8 µM | [3] 17.3 µM | [8] 20.5 µM | [4] 15.5 µM | [5] 19.8 µM

CN(C(=O)C12C3C4C5C3C1(C(=O)C13C6C7C8C6C1C8C73)C5C42)C(C)(C)C (configuration not stated)
inactive: [7] > 50 µM | [1] > 23.6 µM | [2] > 50 µM | [3] > 50 µM | [8] > 50 µM | [4] > 50 µM | [5] > 50 µM | [6] > 21.4 µM

O=[N+]([O-])c1cc(C(F)(F)F)cc2n[se]nc12
inactive: [9] 11 µM | [7] 2.39 µM | [1] 2.36 µM | [2] 3.33 µM | [3] 1.72 µM | [8] 3.14 µM | [4] 6.81 µM | [5] 12.3 µM | [6] 13.2 µM

CN(C)CC(C)(C)/C(=N\Nc1ccccc1)c1ccccc1
inactive: [1] 46.7 µM | [2] 82.2 µM | [3] 18.7 µM | [8] 35 µM | [4] 16.8 µM | [5] 70.1 µM | [6] 33.5 µM

Clc1ccc(C2=Nc3ccccc3SC(c3ccc(Cl)c(Cl)c3)C2)c(Cl)c1 (configuration not stated)
inactive: [7] 12.4 µM | [1] 9.89 µM | [2] 16 µM | [3] 15.3 µM | [4] 18.3 µM | [5] 18.3 µM | [6] 11.5 µM

C[n+]1c2ccccc2c(NC(CS)C(=O)O)c2ccccc21 (configuration not stated)
inactive: [9] 37.2 µM | [7] 18.4 µM | [1] 29.2 µM | [2] 27.4 µM | [3] 20.4 µM | [8] 12 µM | [4] 29.4 µM | [5] 45.2 µM | [6] 22.1 µM

CCCN(CCC)C(=O)c1c([N+](=O)[O-])cc(C(F)(F)F)cc1[N+](=O)[O-]
inactive: [2] 13.7 µM | [3] 30.4 µM | [4] 22.6 µM | [5] 35.2 µM | [6] 35.4 µM

CCc1cccc(NC(=O)c2cc(/C=C/c3ccccc3)nc(S)n2)c1
inactive: [1] > 100 µM | [2] > 100 µM | [3] > 100 µM | [8] > 100 µM | [4] > 100 µM | [5] > 100 µM | [6] > 100 µM

O=C1[C@@H]2C(c3cccc([N+](=O)[O-])c3)=NO[C@@H]2C(=O)N1c1ccc(Cc2ccc(N3C(=O)[C@H]4C(c5cccc([N+](=O)[O-])c5)=NO[C@H]4C3=O)cc2)cc1
inactive: [9] > 100 µM | [1] > 100 µM | [2] > 100 µM | [3] > 100 µM | [8] > 100 µM | [4] > 100 µM | [5] > 100 µM | [6] > 100 µM

COc1ccc(C2=NC(CO)[C@H](c3ccccc3)O2)cc1OC (some centres not stated)
inactive: [9] > 100 µM | [7] > 100 µM | [1] > 100 µM | [2] > 100 µM | [3] > 100 µM | [4] > 100 µM | [6] > 100 µM

CC1(C)C(=NNC(=O)C[N+](C)(C)C)C(C)(C)C1=NNC(=O)C[N+](C)(C)C
inactive: [9] > 100 µM | [7] > 100 µM | [1] > 100 µM | [2] > 100 µM | [3] > 100 µM | [8] > 100 µM | [4] > 100 µM | [5] > 100 µM | [6] 42.2 µM
